Molecular target: T1, human mAChR M4 (Homo sapiens, UniProt P08173)
T1 construct: expressed in transfected cells; host or cells: CHO-K1 (ATCC), stably co-expressing chimeric G protein Gqi5
T1 sequence (P08173 1-479): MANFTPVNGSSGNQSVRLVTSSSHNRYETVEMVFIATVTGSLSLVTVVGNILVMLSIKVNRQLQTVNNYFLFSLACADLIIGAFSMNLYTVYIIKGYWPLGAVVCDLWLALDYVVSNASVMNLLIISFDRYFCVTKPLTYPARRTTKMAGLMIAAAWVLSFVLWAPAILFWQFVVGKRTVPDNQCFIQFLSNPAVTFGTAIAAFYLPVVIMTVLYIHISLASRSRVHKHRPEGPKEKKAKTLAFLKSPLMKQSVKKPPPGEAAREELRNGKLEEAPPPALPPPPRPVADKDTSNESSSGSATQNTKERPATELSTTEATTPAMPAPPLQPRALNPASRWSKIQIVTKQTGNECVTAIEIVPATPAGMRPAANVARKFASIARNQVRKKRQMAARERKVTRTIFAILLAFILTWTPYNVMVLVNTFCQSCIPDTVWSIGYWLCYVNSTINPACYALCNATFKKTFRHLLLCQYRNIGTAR
Experiment: mAChR M4 cell-based functional assay (calcium mobilization, EC80 acetylcholine), human M4
Conditions: for IC50: M4/Gqi5/CHO-K1 cells, decrease of EC80 acetylcholine response; for Emin: human M4, % ACh maximum at 30 μM
How it was run: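 CHO-K1 cells stably expressing human M4 with chimeric Gqi5; intracellular calcium rise read on FDSS as fluorescence static ratio at 1 Hz. Compounds in 10-point 1:3 dilution series; IC50 taken as concentration-dependent decrease of the EC80 acetylcholine response, four-parameter logistic fit.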

Question: Which “Human M4 Emin” value (Table 10) does the source give for `CC(=O)Nc1ccc(-c2cnc(N[C@H]3C[C@@H]4CN(CC5CC6C=CC5C6)C[C@@H]4C3)cn2)cc1` (stereo partly drawn) [Compound 157, N-[4-[5-[[(3aR,5s,6aS)-2-(5-bicyclo[2.2.1]hept-2-enylmethyl)-3,3a,4,5,6,6a-hexahydro-1H-cyclopenta[c]pyrrol-5-yl]amino]pyrazin-2-yl]phenyl]acetamide] here?
Answer: Its value is 5%.

Question: And the IC50 (Table 10)?
Answer: Its IC50 is 52.9 nM.

Question: `Fc1ccc(Cl)c(-c2ccc(O[C@@H]3C[C@@H]4CN(CC5CCCCC5)C[C@@H]4C3)nn2)c1` [Compound 56, (3aR,5r,6aS)-5-[6-(2-chloro-5-fluoro-phenyl)pyridazin-3-yl]oxy-2-(cyclohexylmethyl)-3,3a,4,5,6,6a-hexahydro-1H-cyclopenta[c]pyrrole] was tested. Which IC50 (Table 9) did it give?
Answer: The IC50 was 154 nM.

Question: And the Emin (Table 9)?
Answer: Its Emin is 3.63%.

Question: Which results are given for `Cc1cnn(C)c1-c1ccc(OCC2C[C@@H]3CN(CC4CCCCC4)C[C@@H]3C2)nn1` (stereo partly drawn) [Compound 83, (3aR,6aS)-2-(cyclohexylmethyl)-5-[[6-(2,4-dimethylpyrazol-3-yl)pyridazin-3-yl]oxymethyl]-3,3a,4,5,6,6a-hexahydro-1H-cyclopenta[c]pyrrole]?
Answer: IC50 (Table 9): 222 nM; Emin (Table 9): 3.93%

Question: With `COc1ccccc1CN1C[C@H]2C[C@H](Nc3ccc(-c4cc(F)ccc4Cl)nn3)C[C@H]2C1` [Compound 174, (3aR,5s,6aS)-N-[6-(2-chloro-5-fluoro-phenyl)pyridazin-3-yl]-2-[(2-methoxyphenyl)methyl]-3,3a,4,5,6,6a-hexahydro-1H-cyclopenta[c]pyrrol-5-amine] as the compound, how does the “Human M4 Emin” value (Table 10) read?
Answer: The value was 4%.

Question: And the IC50 (Table 10)?
Answer: Its IC50 is 207 nM.

Question: `Fc1ccc(Cl)c(-c2ccc(N[C@H]3C[C@@H]4CN(CC56CC7CC(CC(C7)C5)C6)C[C@@H]4C3)nn2)c1` [Compound 26, (3aR,5s,6aS)-2-(1-adamantylmethyl)-N-[6-(2-chloro-5-fluoro-phenyl)pyridazin-3-yl]-3,3a,4,5,6,6a-hexahydro-1H-cyclopenta[c]pyrrol-5-amine] was tested. Which IC50 (Table 9) did it give?
Answer: The IC50 was 128 nM.

Question: And the Emin (Table 9)?
Answer: Its Emin is 3.20%.

Question: With `Fc1cccc(CN2C[C@H]3C[C@H](Nc4ccc(-c5cc(F)ccc5Cl)nn4)C[C@H]3C2)c1` [Compound 175, (3aR,5s,6aS)-N-[6-(2-chloro-5-fluoro-phenyl)pyridazin-3-yl]-2-[(3-fluorophenyl)methyl]-3,3a,4,5,6,6a-hexahydro-1H-cyclopenta[c]pyrrol-5-amine] as the compound, how does the “Human M4 Emin” value (Table 10) read?
Answer: The value was 3%.

Question: And the IC50 (Table 10)?
Answer: Its IC50 is 29.7 nM.

Question: For `Cc1nn(C)cc1-c1ccc(N[C@H]2C[C@@H]3CN(Cc4ccccn4)C[C@@H]3C2)nn1` [Compound 9, (3aR,5s,6aS)-N-[6-(1,3-dimethylpyrazol-4-yl)pyridazin-3-yl]-2-(2-pyridylmethyl)-3,3a,4,5,6,6a-hexahydro-1H-cyclopenta[c]pyrrol-5-amine], which IC50 (Table 9) is on record?
Answer: Its IC50 is 45.8 nM.

Question: And the Emin (Table 9)?
Answer: Its Emin is 3.96%.

Question: What does the source list for `COc1cccc(-c2ccc(N[C@H]3C[C@@H]4CN(CC5CCOCC5)C[C@@H]4C3)nn2)c1` [Compound 200, (3aR,5s,6aS)-N-[6-(3-methoxyphenyl)pyridazin-3-yl]-2-(tetrahydropyran-4-ylmethyl)-3,3a,4,5,6,6a-hexahydro-1H-cyclopenta[c]pyrrol-5-amine]?
Answer: Human M4 Emin (Table 10): 6%; IC50 (Table 10): 4 nM

Question: Which “Human M4 Emin” value (Table 10) does the source give for `COc1ccc(-c2ccc(N[C@H]3C[C@@H]4CN(CC5CCOCC5)C[C@@H]4C3)nn2)cn1` [Compound 224, (3aR,5s,6aS)-N-[6-(6-methoxy-3-pyridyl)pyridazin-3-yl]-2-(tetrahydropyran-4-ylmethyl)-3,3a,4,5,6,6a-hexahydro-1H-cyclopenta[c]pyrrol-5-amine] here?
Answer: Its value is 4%.

Question: What about the IC50 (Table 10) of the same compound?
Answer: The IC50 was 6.93 nM.

Question: For `CC(=O)Nc1ccc(-c2ccc(N[C@H]3C[C@@H]4CN(CCC(C)(C)C)C[C@@H]4C3)c(F)c2F)cc1` [Compound 148, N-[4-[4-[[(3aR,5s,6aS)-2-(3,3-dimethylbutyl)-3,3a,4,5,6,6a-hexahydro-1H-cyclopenta[c]pyrrol-5-yl]amino]-2,3-difluoro-phenyl]phenyl]acetamide], which “Human M4 Emin” value (Table 10) is on record?
Answer: Its value is 4%.

Question: And the IC50 (Table 10)?
Answer: Its IC50 is 997 nM.

Question: Which results are given for `Cc1nn(C)cc1-c1ccc(O[C@@H]2C[C@@H]3CN(CC4CCCCC4)C[C@@H]3C2)nn1` [Compound 49, (3aR,5r,6aS)-2-(cyclohexylmethyl)-5-[6-(1,3-dimethylpyrazol-4-yl)pyridazin-3-yl]oxy-3,3a,4,5,6,6a-hexahydro-1H-cyclopenta[c]pyrrole]?
Answer: IC50 (Table 9): 272 nM; Emin (Table 9): 3.17%

Question: How did the IC50 (Table 9) turn out when `Cc1nn(C)cc1-c1ccc(OCC2C[C@@H]3CN(CC4CCCCC4)C[C@@H]3C2)nn1` (stereo partly drawn) [Compound 97, (3aR,6aS)-2-(cyclohexylmethyl)-5-[[6-(1,3-dimethylpyrazol-4-yl)pyridazin-3-yl]oxymethyl]-3,3a,4,5,6,6a-hexahydro-1H-cyclopenta[c]pyrrole] was run?
Answer: The IC50 was 167 nM.

Question: What about the Emin (Table 9) of the same compound?
Answer: Its Emin is 4.44%.

Question: For `Cc1cnn(C)c1-c1ccc(OCC2C[C@@H]3CN(CCC(C)(C)C)C[C@@H]3C2)nn1` (stereo partly drawn) [Compound 78, (3aR,6aS)-2-(3,3-Dimethylbutyl)-5-[[6-(2,4-dimethylpyrazol-3-yl)pyridazin-3-yl]oxymethyl]-3,3a,4,5,6,6a-hexahydro-1H-cyclopenta[c]pyrrole], which IC50 (Table 9) is on record?
Answer: The IC50 was 105 nM.

Question: And the Emin (Table 9)?
Answer: The Emin was 4.35%.

Question: Which results are given for `c1cc(N2CCCC2)nnc1N[C@H]1C[C@@H]2CN(CC3CCOCC3)C[C@@H]2C1` [Compound 192, (3aR,5s,6aS)-N-(6-pyrrolidin-1-ylpyridazin-3-yl)-2-(tetrahydropyran-4-ylmethyl)-3,3a,4,5,6,6a-hexahydro-1H-cyclopenta[c]pyrrol-5-amine]?
Answer: Human M4 Emin (Table 10): 6%; IC50 (Table 10): 40.6 nM

Question: Which results are given for `Cc1cnn(C)c1-c1ccc(NC(=O)C2CC3CN(CC(C)C(C)(C)C)CC3C2)nn1` (centres unmarked) [Compound 76, N-[6-(2,4-dimethylpyrazol-3-yl)pyridazin-3-yl]-2-(2,3,3-trimethylbutyl)-3,3a,4,5,6,6a-hexahydro-1H-cyclopenta[c]pyrrole-5-carboxamide]?
Answer: IC50 (Table 9): 1040 nM; Emin (Table 9): 4.09%

Question: Which “Human M4 Emin” value (Table 10) does the source give for `Fc1ccc(-c2ccc(N[C@H]3C[C@@H]4CN(CC5CCOCC5)C[C@@H]4C3)nn2)c(Cl)c1` [Compound 203, (3aR,5s,6aS)-N-[6-(2-chloro-4-fluoro-phenyl)pyridazin-3-yl]-2-(tetrahydropyran-4-ylmethyl)-3,3a,4,5,6,6a-hexahydro-1H-cyclopenta[c]pyrrol-5-amine] here?
Answer: The value was 5%.

Question: What about the IC50 (Table 10) of the same compound?
Answer: The IC50 was 1.25 nM.

Question: With `Cc1cnn(C)c1-c1ccc(N[C@H]2C[C@@H]3CN(CC4CCCCC4)C[C@@H]3C2)nn1` [Compound 20, (3aR,5s,6aS)-2-(cyclohexylmethyl)-N-[6-(2,4-dimethylpyrazol-3-yl)pyridazin-3-yl]-3,3a,4,5,6,6a-hexahydro-1H-cyclopenta[c]pyrrol-5-amine] as the compound, how does the IC50 (Table 9) read?
Answer: The IC50 was 1 nM.

Question: What about the Emin (Table 9) of the same compound?
Answer: The Emin was 7.16%.

Question: With `Fc1ccc(Cl)c(-c2ccc(OCC3C[C@@H]4CN(CC5CCOCC5)C[C@@H]4C3)nn2)c1` (stereo partly drawn) [Compound 112, (3aR,6aS)-5-[[6-(2-chloro-5-fluoro-phenyl)pyridazin-3-yl]oxymethyl]-2-(tetrahydropyran-4-ylmethyl)-3,3a,4,5,6,6a-hexahydro-1H-cyclopenta[c]pyrrole] as the compound, how does the IC50 (Table 9) read?
Answer: The IC50 was 609 nM.

Question: And the Emin (Table 9)?
Answer: The Emin was 4.59%.

Question: What does the source list for `FC1(F)CCCN(c2ccc(N[C@H]3C[C@@H]4CN(CC5CCOCC5)C[C@@H]4C3)nn2)C1` [Compound 196, (3aR,5s,6aS)-N-[6-(3,3-difluoro-1-piperidyl)pyridazin-3-yl]-2-(tetrahydropyran-4-ylmethyl)-3,3a,4,5,6,6a-hexahydro-1H-cyclopenta[c]pyrrol-5-amine]?
Answer: Human M4 Emin (Table 10): 4%; IC50 (Table 10): 2.09 nM

Question: `Cc1nn(C)cc1-c1cnc(N[C@H]2C[C@@H]3CN(CCC(C)(C)C)C[C@@H]3C2)cn1` [Compound 153, (3aR,5s,6aS)-2-(3,3-dimethylbutyl)-N-[5-(1,3-dimethylpyrazol-4-yl)pyrazin-2-yl]-3,3a,4,5,6,6a-hexahydro-1H-cyclopenta[c]pyrrol-5-amine] was tested. Which “Human M4 Emin” value (Table 10) did it give?
Answer: Its value is 5%.

Question: What about the IC50 (Table 10) of the same compound?
Answer: The IC50 was 124 nM.

Question: Which “Human M4 Emin” value (Table 10) does the source give for `Cc1cnn(C)c1-c1ccc(O[C@H]2C[C@@H]3CN(CCC(C)(C)C)C[C@@H]3C2)nn1` [Compound 135, (3aR,5s,6aS)-2-(3,3-dimethylbutyl)-5-[6-(2,4-dimethylpyrazol-3-yl)pyridazin-3-yl]oxy-3,3a,4,5,6,6a-hexahydro-1H-cyclopenta[c]pyrrole] here?
Answer: Its value is 5%.

Question: What about the IC50 (Table 10) of the same compound?
Answer: The IC50 was 287 nM.

Question: For `CCC(C)CN1C[C@H]2C[C@H](Nc3ccc(-c4cn(C)nc4C)nn3)C[C@H]2C1` (some centres unmarked) [compound 13], which IC50 (Table 9) is on record?
Answer: Its IC50 is 0.7 nM.

Question: Which IC50 (Table 9) does the source give for `Cc1cccnc1CN1C[C@H]2CC(COc3ccc(-c4c(C)cnn4C)nn3)C[C@H]2C1` (stereo partly drawn) [Compound 90, (3aR,6aS)-5-[[6-(2,4-dimethylpyrazol-3-yl)pyridazin-3-yl]oxymethyl]-2-[(3-methyl-2-pyridyl)methyl]-3,3a,4,5,6,6a-hexahydro-1H-cyclopenta[c]pyrrole] here?
Answer: The IC50 was 1430 nM.

Question: And the Emin (Table 9)?
Answer: Its Emin is 7.98%.

Question: `Fc1ccc(Cl)c(-c2ccc(N[C@H]3C[C@@H]4CN(Cc5cccc6c5OCO6)C[C@@H]4C3)nn2)c1` [Compound 167, (3aR,5s,6aS)-2-(1,3-benzodioxol-4-ylmethyl)-N-[6-(2-chloro-5-fluoro-phenyl)pyridazin-3-yl]-3,3a,4,5,6,6a-hexahydro-1H-cyclopenta[c]pyrrol-5-amine] was tested. Which “Human M4 Emin” value (Table 10) did it give?
Answer: The value was 2%.

Question: What about the IC50 (Table 10) of the same compound?
Answer: The IC50 was 39.1 nM.
